This passage reports mortality results from patent publication US20130338367A1, “PYRAZOLE DERIVATIVES AND PESTICIDES” (Nissan Chemical Industries, Ltd., priority 2011, published 2013).

In general, mortality refers to the share of the test organisms that died.

Where a name gives a salt, the structure may show the parent alone. Read-outs that look alike come from different tables or passages of the source. Where only a bound is given, the exact number is not on record here.

In test [1] the test system is Nilaparvata lugens. Description: Insecticidal Test on Nilaparvata lugens. It is filed as in vivo. The note with it: 144 h, 500 ppm solution, rice sheaths soaked, 2nd-instar nymphs, 25° C., 6 days after, read-out: mortality (%). As for the experimental part:
10% emulsifiable concentrates (or 10% wettable powders) of compounds of the present invention were diluted with water containing a spreader to obtain 500 ppm solutions. Rice sheaths were soaked in the solutions for about 10 seconds, dried in air and put in test tubes. In each tube, five 2nd-instar nymphs of Nilaparvata lugens were released, and the tubes were capped with sponge and placed in an incubator at 25° C. 6 Days after, dead insects were counted, and the mortality (%) (the number of dead insects÷the number of released insects×100) was calculated. The test was carried out in duplicate.

The test system of test [2] is Myzus persicae. Description: Insecticidal Test on Myzus persicae. The format is in vivo. The note with it: foliar, 144 h. As to the method: Wet absorbent cotton was laid on glass dishes having an inner diameter of 3 cm, and covered with leaves of Canarium album cut into circles of the same diameter, and 4 apterous adults of Myzus persicae were released. After a day, 10% emulsifiable concentrates (or 10% wettable powders) of compounds of the present invention were diluted with water containing a spreader to obtain 500 ppm solutions, and the solution were sprayed from a rotary spray tower (2.5 mg/cm^2). The dishes were covered with lids and placed in an incubator at 25° C. 6 Days after, dead insects were counted, and the mortality was calculated by using the same equation as in Test Example 1. The test was carried out in duplicate.

The mark [3] stands for this setting: 500 ppm solution sprayed, apterous adults on leaf discs, 25° C., 6 days after, read-out: mortality.

Take `O=C(CCCCl)Nc1cn(-c2cccnc2)nc1Cl` [1-131, 4-chloro-N-{3-chloro-1-(pyridin-3-yl)-1H-pyrazol-4-yl}butanamide]: in test [1], the mortality at 500 ppm is ≥ 90%.
Same read-out and setting: to `Nc1cn(-c2cccnc2)nc1Cl` [B-021, 3-chloro-1-(pyridin-3-yl)-1H-pyrazole-4-amine] belongs ≥ 90%.
Consider `CSCCC(=O)N(C)c1cn(-c2cccnc2)nc1C` [1-018, N-methyl-N-{3-methyl-1-(pyridin-3-yl)-1H-pyrazol-4-yl}-3-(methylthio)propanamide], for which the mortality at 500 ppm in test [1] and in test [2] (setting [3]) was ≥ 90% throughout.
Regarding `Cc1nn(-c2cccnc2)cc1N` [B-009, 3-methyl-1-(pyridin-3-yl)-1H-pyrazole-4-amine], in test [1], the mortality at 500 ppm was ≥ 90%.
Turning to `CCNc1cnn(C(C)(C)C)c1Cl` [H-001, 1-tert-butyl-5-chloro-N-ethyl-1H-pyrazole-4-amine hydrochloride], in test [2] (setting [3]), the mortality at 500 ppm is ≥ 90%.
As for `CSCCNc1cn(-c2cccnc2)nc1Cl` [C-002, 3-chloro-N-{2-(methylthio)ethyl}-1-(pyridin-3-yl)-1H-pyrazole-4-amine], the mortality at 500 ppm in test [1] and in test [2] (setting [3]) was ≥ 90% in each case.
Take `CNc1cn(-c2cccnc2)nc1Cl` [A-003, 3-chloro-N-methyl-1-(pyridin-3-yl)-1H-pyrazole-4-amine dihydrochloride]: the mortality at 500 ppm in test [2] (setting [3]) was ≥ 90%.
Take `CCSC(C)C(=O)N(CC)c1c[nH]nc1Cl` (stereo not drawn) [J-001, N-(3-chloro-1H-pyrazol-4-yl)-N-ethyl-2-(ethylthio)propanamide]: in test [2] (setting [3]), the mortality at 500 ppm is ≥ 90%.
`O=C1CCCN1c1cn(-c2cccnc2)nc1Cl` [1-132, 1-{3-chloro-1-(pyridin-3-yl)-1H-pyrazol-4-yl}pyrrolidin-2-one]: the mortality at 500 ppm in test [2] (setting [3]) was ≥ 90%.
Take `CN(C(=O)OC(C)(C)C)c1cnn(C(C)(C)C)c1Cl` [G-002, tert-butyl 1-tert-butyl-5-chloro-1H-pyrazol-4-yl(methyl)carbamate]: the mortality at 500 ppm in test [2] is ≥ 90%.
As to `O=C1C(Br)CCCN1c1cnn(-c2cccnc2)c1` (stereo not drawn) [1-027, 3-bromo-1-{1-(pyridin-3-yl)-1H-pyrazol-4-yl}piperidin-2-one], in test [2] (setting [3]), the mortality at 500 ppm was ≥ 90%.
The same measure, in the same setting: the same measure for `C=C1CCN(c2cn(-c3cccnc3)nc2Cl)C1=O` [1-133, 1-{3-chloro-1-(pyridin-3-yl)-1H-pyrazol-4-yl}-3-methylenepyrrolidin-2-one]: ≥ 90%.
As to `CC(C)(C)OC(=O)Nc1cnn(C(C)(C)C)c1Cl` [F-001, tert-butyl 1-tert-butyl-5-chloro-1H-pyrazol-4-ylcarbamate], the mortality at 500 ppm in test [1] is ≥ 90%.
Regarding `CSCCCNc1cn(-c2cccnc2)nc1Cl` [C-001, 3-chloro-N-{3-(methylthio)propyl}-1-(pyridin-3-yl)-1H-pyrazole-4-amine], the mortality at 500 ppm in test [1] and in test [2] (setting [3]) was ≥ 90% in each case.
With `CCNc1cn(-c2cccnc2)nc1C(F)(F)F` [B-018, N-ethyl-1-(pyridin-3-yl)-3-(trifluoromethyl)-1H-pyrazole-4-amine], the mortality at 500 ppm in test [1] and in test [2] (setting [3]) was ≥ 90% each time.
As to `FC(F)(F)CNc1cn(-c2cccnc2)nc1Cl` [B-012, 3-chloro-1-(pyridin-3-yl)-N-(2,2,2-trifluoroethyl)-1H-pyrazole-4-amine], the mortality at 500 ppm in test [1] is ≥ 90%.
Regarding `CCNc1cn(-c2cccnc2)nc1Cl` [A-004, 3-chloro-N-ethyl-1-(pyridin-3-yl)-1H-pyrazole-4-amine dihydrochloride], in test [2] (setting [3]), the mortality at 500 ppm is ≥ 90%.
